Data as given in the NIST ThermoML archive (doi:10.1016/j.jct.2016.03.030).
Numbers after ± are expanded uncertainties.

Test: xn = mol fraction of the nth substance listed
Details: 100 kPa, Liquid; for viscosity: Falling or rolling sphere viscometry; for mass density: Vibrating tube method

CCCCC[N+]1(C)CCCCC1.[Br-] [1-methyl-1-pentylpiperidinium bromide] + O
Details | mass density [kg/m3] | viscosity [mPa·s]
298.15 K, x1 = 0.003 | 1003.5 ± 1.1 | –
298.15 K, x1 = 0.0072 | 1012 ± 1.1 | –
298.15 K, x1 = 0.0119 | 1021.1 ± 1.1 | –
298.15 K, x1 = 0.0427 | 1070.7 ± 1 | 2.961 ± 0.3
298.15 K, x1 = 0.0615 | 1091.4 ± 1 | 4.385 ± 0.44
298.15 K, x1 = 0.0839 | 1110.2 ± 1 | 6.713 ± 0.67
298.15 K, x1 = 0.1192 | 1131.1 ± 1 | 12.34 ± 1.2
298.15 K, x1 = 0.1491 | 1144 ± 1 | 17.14 ± 1.7
298.15 K, x1 = 0.2004 | 1159.3 ± 1.1 | 27.79 ± 2.8
298.15 K, x1 = 0.2206 | 1163.7 ± 1.1 | 41.58 ± 4.2
298.15 K, x1 = 0.2393 | 1167.7 ± 1.1 | 58.11 ± 5.8
298.15 K, x1 = 0.2655 | 1172.3 ± 1.2 | 95.22 ± 9.7
298.15 K, x1 = 0.2745 | 1173.8 ± 1.2 | 107.8 ± 11
303.15 K, x1 = 0.003 | 1002 ± 1.1 | –
303.15 K, x1 = 0.0072 | 1010.4 ± 1.1 | –
303.15 K, x1 = 0.0119 | 1019.3 ± 1.1 | –
303.15 K, x1 = 0.0427 | 1067.8 ± 1 | 2.439 ± 0.24
303.15 K, x1 = 0.0615 | 1088.2 ± 1 | 3.663 ± 0.37
303.15 K, x1 = 0.0839 | 1106.7 ± 1 | 5.513 ± 0.55
303.15 K, x1 = 0.1192 | 1127.5 ± 1 | 9.841 ± 0.99
303.15 K, x1 = 0.1491 | 1140.4 ± 1 | 12.93 ± 1.3
303.15 K, x1 = 0.2004 | 1153.7 ± 1.1 | 21.75 ± 2.2
303.15 K, x1 = 0.2206 | 1160.2 ± 1.1 | 29.41 ± 3
303.15 K, x1 = 0.2393 | 1164.2 ± 1.1 | 44.51 ± 4.5
303.15 K, x1 = 0.2655 | 1168.8 ± 1.2 | 68.59 ± 6.9
303.15 K, x1 = 0.2745 | 1170.3 ± 1.2 | 77.28 ± 7.8
308.15 K, x1 = 0.003 | 1000.2 ± 1.1 | –
308.15 K, x1 = 0.0072 | 1008.6 ± 1.1 | –
308.15 K, x1 = 0.0119 | 1017.3 ± 1.1 | –
308.15 K, x1 = 0.0427 | 1064.8 ± 1 | 1.881 ± 0.19
308.15 K, x1 = 0.0615 | 1084.9 ± 1 | 3.087 ± 0.31
308.15 K, x1 = 0.0839 | 1103.2 ± 1 | 4.576 ± 0.46
308.15 K, x1 = 0.1192 | 1123.9 ± 1 | 8.001 ± 0.8
308.15 K, x1 = 0.1491 | 1136.8 ± 1 | 9.983 ± 1
308.15 K, x1 = 0.2004 | 1152.1 ± 1.1 | 16.35 ± 1.6
308.15 K, x1 = 0.2206 | 1156.7 ± 1.1 | 23.02 ± 2.3
308.15 K, x1 = 0.2393 | 1160.7 ± 1.1 | 33.69 ± 3.4
308.15 K, x1 = 0.2655 | 1165.3 ± 1.2 | 50.52 ± 5.1
308.15 K, x1 = 0.2745 | 1166.8 ± 1.2 | 56.51 ± 5.7
313.15 K, x1 = 0.003 | 998.2 ± 1.1 | –
313.15 K, x1 = 0.0072 | 1006.5 ± 1.1 | –
313.15 K, x1 = 0.0119 | 1015.1 ± 1.1 | –
313.15 K, x1 = 0.0427 | 1061.8 ± 1 | 1.639 ± 0.16
313.15 K, x1 = 0.0615 | 1081.5 ± 1 | 2.632 ± 0.26
313.15 K, x1 = 0.0839 | 1099.7 ± 1 | 3.846 ± 0.39
313.15 K, x1 = 0.1192 | 1120.3 ± 1 | 6.581 ± 0.66
313.15 K, x1 = 0.1491 | 1133.2 ± 1 | 8.698 ± 0.87
313.15 K, x1 = 0.2004 | 1148.2 ± 1.1 | 14.09 ± 1.4
313.15 K, x1 = 0.2206 | 1153.1 ± 1.1 | 18.11 ± 1.8
313.15 K, x1 = 0.2393 | 1157.1 ± 1.1 | 25.85 ± 2.6
313.15 K, x1 = 0.2655 | 1161.8 ± 1.2 | 38.16 ± 3.8
313.15 K, x1 = 0.2745 | 1163.3 ± 1.2 | 42.34 ± 4.3
318.15 K, x1 = 0.003 | 996.1 ± 1.1 | –
318.15 K, x1 = 0.0072 | 1004.2 ± 1.1 | –
318.15 K, x1 = 0.0119 | 1012.8 ± 1.1 | –
318.15 K, x1 = 0.0427 | 1058.7 ± 1 | 1.441 ± 0.14
318.15 K, x1 = 0.0615 | 1078.1 ± 1 | 2.267 ± 0.23
318.15 K, x1 = 0.0839 | 1096.1 ± 1 | 3.269 ± 0.33
318.15 K, x1 = 0.1192 | 1116.6 ± 1 | 5.458 ± 0.55
318.15 K, x1 = 0.1491 | 1129.5 ± 1 | 7.311 ± 0.73
318.15 K, x1 = 0.2004 | 1144.5 ± 1.1 | 11.22 ± 1.1
318.15 K, x1 = 0.2206 | 1149.5 ± 1.1 | 14.1 ± 1.4
318.15 K, x1 = 0.2393 | 1153.6 ± 1.1 | 20.21 ± 2
318.15 K, x1 = 0.2655 | 1158.3 ± 1.2 | 29.44 ± 3
318.15 K, x1 = 0.2745 | 1159.8 ± 1.2 | 32.5 ± 3.3
323.15 K, x1 = 0.003 | 993.7 ± 1.1 | –
323.15 K, x1 = 0.0072 | 1001.9 ± 1.1 | –
323.15 K, x1 = 0.0119 | 1010.3 ± 1.1 | –
323.15 K, x1 = 0.0427 | 1055.5 ± 1 | 1.261 ± 0.13
323.15 K, x1 = 0.0615 | 1074.7 ± 1 | 1.945 ± 0.2
323.15 K, x1 = 0.0839 | 1092.5 ± 1 | 2.77 ± 0.28
323.15 K, x1 = 0.1192 | 1113 ± 1 | 4.499 ± 0.45
323.15 K, x1 = 0.1491 | 1125.8 ± 1 | 6.029 ± 0.6
323.15 K, x1 = 0.2004 | 1141.2 ± 1.1 | 9.723 ± 0.98
323.15 K, x1 = 0.2206 | 1145.9 ± 1.1 | 12.33 ± 1.2
323.15 K, x1 = 0.2393 | 1150.1 ± 1.1 | 15.88 ± 1.6
323.15 K, x1 = 0.2655 | 1154.8 ± 1.1 | 22.79 ± 2.3
323.15 K, x1 = 0.2745 | 1156.3 ± 1.2 | 25.06 ± 2.5
328.15 K, x1 = 0.003 | 990.9 ± 1.1 | –
328.15 K, x1 = 0.0072 | 999.4 ± 1.1 | –
328.15 K, x1 = 0.0119 | 1007.7 ± 1.1 | –
328.15 K, x1 = 0.0427 | 1052.2 ± 1 | 1.11 ± 0.11
328.15 K, x1 = 0.0615 | 1071.2 ± 1 | 1.682 ± 0.17
328.15 K, x1 = 0.0839 | 1088.9 ± 1 | 2.369 ± 0.24
328.15 K, x1 = 0.1192 | 1109.3 ± 1 | 3.749 ± 0.38
328.15 K, x1 = 0.1491 | 1122.1 ± 1 | 5.354 ± 0.54
328.15 K, x1 = 0.2004 | 1137.5 ± 1.1 | 8.195 ± 0.82
328.15 K, x1 = 0.2206 | 1142.3 ± 1.1 | 10.68 ± 1.1
328.15 K, x1 = 0.2393 | 1146.5 ± 1.1 | 12.74 ± 1.3
328.15 K, x1 = 0.2655 | 1151.3 ± 1.1 | 18.03 ± 1.8
328.15 K, x1 = 0.2745 | 1152.8 ± 1.2 | 19.71 ± 2
333.15 K, x1 = 0.003 | 989.3 ± 1.1 | –
333.15 K, x1 = 0.0072 | 996.3 ± 1.1 | –
333.15 K, x1 = 0.0119 | 1004.9 ± 1.1 | –
333.15 K, x1 = 0.0427 | 1048.8 ± 1 | 1.034 ± 0.1
333.15 K, x1 = 0.0615 | 1067.6 ± 1 | 1.474 ± 0.15
333.15 K, x1 = 0.0839 | 1085.2 ± 1 | 2.055 ± 0.21
333.15 K, x1 = 0.1192 | 1105.5 ± 1 | 3.014 ± 0.3
333.15 K, x1 = 0.1491 | 1118.4 ± 1 | 4.513 ± 0.45
333.15 K, x1 = 0.2004 | 1132.9 ± 1.1 | 7.033 ± 0.71
333.15 K, x1 = 0.2206 | 1138.7 ± 1.1 | 8.945 ± 0.9
333.15 K, x1 = 0.2393 | 1143 ± 1.1 | 10.47 ± 1.1
333.15 K, x1 = 0.2655 | 1147.7 ± 1.1 | 14.56 ± 1.5
333.15 K, x1 = 0.2745 | 1149.3 ± 1.2 | 15.86 ± 1.6
338.15 K, x1 = 0.003 | 986 ± 1.1 | –
338.15 K, x1 = 0.0072 | 993.1 ± 1.1 | –
338.15 K, x1 = 0.0119 | 1002 ± 1.1 | –
338.15 K, x1 = 0.0427 | 1045.4 ± 1 | 0.886 ± 0.089
338.15 K, x1 = 0.0615 | 1064 ± 1 | 1.3 ± 0.13
338.15 K, x1 = 0.0839 | 1081.4 ± 1 | 1.835 ± 0.18
338.15 K, x1 = 0.1192 | 1101.8 ± 1 | 2.724 ± 0.27
338.15 K, x1 = 0.1491 | 1114.7 ± 1 | 4.032 ± 0.4
338.15 K, x1 = 0.2004 | 1131.2 ± 1.1 | 6.088 ± 0.61
338.15 K, x1 = 0.2206 | 1135.1 ± 1.1 | 7.421 ± 0.74
338.15 K, x1 = 0.2393 | 1139.4 ± 1.1 | 8.696 ± 0.87
338.15 K, x1 = 0.2655 | 1144.2 ± 1.1 | 11.95 ± 1.2
338.15 K, x1 = 0.2745 | 1145.8 ± 1.2 | 12.94 ± 1.3
343.15 K, x1 = 0.003 | 983.6 ± 1.1 | –
343.15 K, x1 = 0.0072 | 990.1 ± 1.1 | –
343.15 K, x1 = 0.0119 | 999 ± 1.1 | –
343.15 K, x1 = 0.0427 | 1041.8 ± 1 | 0.85 ± 0.085
343.15 K, x1 = 0.0615 | 1060.3 ± 1 | 1.142 ± 0.12
343.15 K, x1 = 0.0839 | 1077.7 ± 1 | 1.634 ± 0.16
343.15 K, x1 = 0.1192 | 1098 ± 1 | 2.382 ± 0.24
343.15 K, x1 = 0.1491 | 1110.9 ± 1 | 3.697 ± 0.37
343.15 K, x1 = 0.2004 | 1126.4 ± 1.1 | 5.341 ± 0.54
343.15 K, x1 = 0.2206 | 1131.5 ± 1.1 | 6.243 ± 0.63
343.15 K, x1 = 0.2393 | 1135.9 ± 1.1 | 7.34 ± 0.74
343.15 K, x1 = 0.2655 | 1140.6 ± 1.1 | 9.976 ± 1
343.15 K, x1 = 0.2745 | 1142.3 ± 1.2 | 10.75 ± 1.1
